In brackets after ≈: the same amount, converted by molar mass. Where two headings read alike, the source gives them in different places.
Experiments:
ecFabI = ecFabI (Escherichia coli (strain K12), UniProt P0AEK4); assay: ecFabI inhibition kinetics; assay type: biochemical; details: single point progress curve analysis
E. coli MG1655 ΔacrAB = assay: microbe, parasite or virus in culture; assay type: cell-based, Escherichia coli; details: Escherichia coli, MG1655
saFabI = saFabI (Staphylococcus aureus (strain MRSA252), UniProt Q6GI75); assay: saFabI inhibition kinetics; assay type: biochemical
S. aureus RN4220 = assay: MIC microbroth dilution, S. aureus RN4220; assay type: cell-based, Staphylococcus aureus; details: for MIC: Staphylococcus aureus; for Staphylococcus aureus MIC (μg/mL) RN4220: 2-pyridones table
[1] = biological target: M. tuberculosis enoyl-ACP reductase InhA (Mycobacterium tuberculosis (strain ATCC 25618 / H37Rv), UniProt P9WGR1); assay: InhA inhibition kinetics; assay type: biochemical
M. tuberculosis H37Rv = assay: MIC microbroth dilution, M. tuberculosis H37Rv; assay type: cell-based; details: Mycobacterium tuberculosis, H37RV, read-out: Mycobacterium tuberculosis MIC (μg/mL) H37Rv
F. tularensis LVS = assay: microbe, parasite or virus in culture; assay type: cell-based; details: Francisella tularensis, read-out: Francisella tularensis MIC (μg/mL) LVS, 2-pyridones table
Bt38 = assay: microbe, parasite or virus in culture; assay type: cell-based; details: Burkholderia pseudomallei, read-out: Burkholderia pseudomallei MIC (μg/mL) Bt38
[2] = biological target: Francisella tularensis FabI (Francisella tularensis subsp. tularensis (strain SCHU S4 / Schu 4), UniProt Q5NGQ3); assay: biochemical
bpFabI = bpFabI (Burkholderia pseudomallei, UniProt A0A0H3HP34); assay: biochemical
[3] = Ki^app (nM), saFabI, [S]/KS = 2
[4] = Staphylococcus aureus Ki (in brackets under IC50), 2-pyridones table
[5] = RN4220, 2-pyridones table, read-out: Staphylococcus aureus MIC (μg/mL) RN4220
[6] = RN4220, S. aureus RN4220, read-out: MIC

Oc1cc(F)ccc1Oc1ccccc1 [PT55]
Ki (ecFabI; [S]/KS = 0.19, binds E-NAD+ binary complex, read-out: Ki^app): 92.6 nM
Ki (ecFabI; binds E-NAD+ binary complex, read-out: Ki): 1.1 nM
MIC (E. coli MG1655 ΔacrAB): 1.2 µM (≈ 0.245 µg/mL)

CCCCCCc1ccn(Cc2ccccc2)c(=O)c1 [PT179]
IC50 (saFabI): 192 ± 30 nM
Ki (saFabI; Ki (nM), saFabI): 19 ± 2.7 nM
Ki (saFabI; [3]): 70.4 ± 9.8 nM
Ki (saFabI; [4]): 19 ± 2.7 nM
MIC (S. aureus RN4220; [5]): 32 µg/mL
MIC (S. aureus RN4220; [6]): 119 µM

CCCCCCc1ccn(Cc2cccc(F)c2)c(=O)c1 [PT421]
IC50 (saFabI): 297 ± 64 nM
MIC (S. aureus RN4220; [5]): 2 µg/mL

CCCCCCc1cc(=O)c(Oc2cccnc2N)cn1C [PT169]
IC50 [1]: 379 ± 41 nM
MIC (M. tuberculosis H37Rv; 4-pyridones table): 12.5 µg/mL (≈ 41.5 µM)

CCCCCCc1ccn(Cc2ccc(Cl)cc2)c(=O)c1 [PT426]
IC50 (saFabI): 185 ± 18 nM
MIC (S. aureus RN4220; [5]): ~32 µg/mL

CCCCCCc1ccn(Cc2ccc(C(C)=O)cc2)c(=O)c1 [PT427]
IC50 (saFabI): 394 ± 40 nM
MIC (S. aureus RN4220; [5]): > 128 µg/mL

CCCCCCc1ccn(Cc2ccccc2C#N)c(=O)c1 [PT420]
IC50 (saFabI): 746 ± 165 nM
Ki (saFabI; Ki (nM), saFabI): 29.6 ± 9.5 nM
Ki (saFabI; [3]): 110 ± 1.7 nM
Ki (saFabI; [4]): 29.6 ± 0.5 nM
MIC (S. aureus RN4220; [5]): 32 µg/mL
MIC (S. aureus RN4220; [6]): 109 µM
MIC (F. tularensis LVS): 10.2 µg/mL (≈ 34.7 µM)
MIC (Bt38): 44.4 µg/mL (≈ 151 µM)
IC50 [2]: 727 ± 84 nM

Cc1ccn(Cc2ccccc2Cl)c(=O)c1 [PT170]
IC50 (saFabI): > 1000 nM
Ki (saFabI; Ki (nM), saFabI): 229 ± 5.2 nM
Ki (saFabI; [3]): 849 ± 19.3 nM
Ki (saFabI; [4]): 229 ± 5.2 nM
IC50 [1]: > 1700 nM
MIC (S. aureus RN4220; [5]): > 500 µg/mL
MIC (S. aureus RN4220; [6]): > 500 µM
MIC (F. tularensis LVS): 50 µg/mL (≈ 214 µM)
MIC (M. tuberculosis H37Rv; 2-pyridones table): > 50 µg/mL
IC50 [2]: 202 ± 17 nM
IC50 (bpFabI): > 1000 nM

CCCCCCc1ccn(Cc2ccc(N)cc2)c(=O)c1 [PT425]
IC50 (saFabI): 380 ± 20 nM
MIC (S. aureus RN4220; [5]): ~32 µg/mL

Cc1ccc(Oc2ccccc2)c(O)c1 [PT53, reference compound]
MIC (S. aureus RN4220; [6]): 20 µM

Oc1ccccc1Oc1ccccc1 [PT51, reference compound]
MIC (S. aureus RN4220; [6]): 687 µM

Cn1cc(Oc2ccc([N+](=O)[O-])cc2)c(=O)cc1CCl [PT151]
Mycobacterium tuberculosis enzyme, inhibition at 1 μM ([1]; at 1 μM, [E] = 50 nM): No

CCCCCCc1ccc(Oc2ccccc2C)c(=O)[nH]1 [PT192]
Staphylococcus aureus MIC (μg/mL) RN4220 (S. aureus RN4220): No
MIC (F. tularensis LVS): 9.2 µg/mL (≈ 32.2 µM)
MIC (Bt38): 8.35 µg/mL (≈ 29.3 µM)

CCCCCCc1cc(=O)c(Oc2cccnc2C#N)cn1C [PT167]
IC50 [1]: 979 ± 152 nM
MIC (M. tuberculosis H37Rv; 4-pyridones table): 100 µg/mL (≈ 321 µM)

CCCCCCc1ccn(Cc2ccccc2F)c(=O)c1 [PT423]
IC50 (saFabI): 165 ± 22 nM
MIC (S. aureus RN4220; [5]): 16 µg/mL

CCCCCCc1cc(=O)c(Oc2ccccc2C#N)cn1C [PT159]
Ki (saFabI; Ki (nM), saFabI): 11 ± 0.9 nM
Ki (saFabI; [3]): 41 ± 3.4 nM
Ki (saFabI; Staphylococcus aureus Ki (nM), 4-pyridones table): 11 nM
IC50 [1]: 629 nM
MIC (S. aureus RN4220; RN4220, 4-pyridones table, read-out: Staphylococcus aureus MIC (μg/mL) RN4220): 4 µg/mL
MIC (S. aureus RN4220; [6]): 12.9 µM
MIC (M. tuberculosis H37Rv; 4-pyridones table): 50 µg/mL (≈ 161 µM)

CCCCCCc1ccn(Cc2ccc(F)cc2)c(=O)c1 [PT422]
IC50 (saFabI): 222 ± 22 nM
MIC (S. aureus RN4220; [5]): 1 µg/mL

CCCCCCc1cc(=O)c(Oc2cccnc2F)cn1C [PT190]
IC50 [1]: 641 ± 55 nM
MIC (M. tuberculosis H37Rv; 4-pyridones table): 25 µg/mL (≈ 82.1 µM)

CCCCCCc1ccn(Cc2cccc([N+](=O)[O-])c2C)c(=O)c1 [PT174]
IC50 (saFabI): 248 ± 20 nM
MIC (S. aureus RN4220; [5]): 50 µg/mL
MIC (F. tularensis LVS): 2.12 µg/mL (≈ 6.46 µM)
MIC (Bt38): 250 µg/mL (≈ 761 µM)
IC50 [2]: 85 ± 11 nM

CCCCCCc1ccn(Cc2cccnc2F)c(=O)c1 [PT175]
IC50 (saFabI): > 1000 nM
IC50 [1]: > 4000 nM
MIC (S. aureus RN4220; [5]): 50 µg/mL
MIC (F. tularensis LVS): 14 µg/mL (≈ 48.4 µM)
MIC (M. tuberculosis H37Rv; 2-pyridones table): 50 µg/mL (≈ 173 µM)
MIC (Bt38): 78.3 µg/mL (≈ 272 µM)
IC50 (bpFabI): > 1000 nM

CCCCCCc1ccn(Cc2ccccc2Cl)c(=O)c1 [PT172]
IC50 (saFabI): 379 ± 88 nM
Ki (saFabI; Ki (nM), saFabI): 11 ± 0.4 nM
Ki (saFabI; [3]): 40.7 ± 1.3 nM
Ki (saFabI; [4]): 11 ± 0.4 nM
IC50 [1]: 240 ± 44 nM
Staphylococcus aureus MIC (μg/mL) RN4220 (S. aureus RN4220): 8 µg/mL
MIC (S. aureus RN4220; [5]): 5 µg/mL
MIC (S. aureus RN4220; [6]): 26.3 µM
MIC (F. tularensis LVS): 4.04 µg/mL (≈ 13.3 µM)
MIC (M. tuberculosis H37Rv; 2-pyridones table): 25 µg/mL (≈ 82.3 µM)
MIC (Bt38): 250 µg/mL (≈ 823 µM)
IC50 [2]: 61 ± 13 nM
IC50 (bpFabI): 260 ± 9.3 nM

CCCCCCc1ccc(Oc2ccccc2)c(=O)[nH]1 [PT191]
IC50 (saFabI): > 2000 nM
Ki (saFabI; Ki (nM), saFabI): 196 ± 22.2 nM
Ki (saFabI; [3]): 729 ± 82.4 nM
Ki (saFabI; [4]): 196 ± 22.2 nM
Mycobacterium tuberculosis enzyme, inhibition ([1]; [I] = 2 μM, [E] = 100 nM): 10%
IC50 [2]: > 10000 nM
IC50 (bpFabI): > 3000 nM

Cc1cc([N+](=O)[O-])ccc1Oc1cn(C)c(CCl)cc1=O [PT152]
IC50 [1]: 2250 nM
MIC (M. tuberculosis H37Rv; 4-pyridones table): 12.5 µg/mL (≈ 40.5 µM)

CCCCCCc1cc(=O)c(Oc2ccccn2)cn1C [PT168]
IC50 [1]: 1780 ± 315 nM
MIC (M. tuberculosis H37Rv; 4-pyridones table): 50 µg/mL (≈ 175 µM)
